Patent EP1247803A2, “Indolinone compounds suitable for modulation of protein kinases” (Sugen, Inc., priority 1996, dated 1998)

Tests used:
FLK-1 receptor = target: T1, FLK-1 receptor (Mus musculus, UniProt P35918); assay: FLK-1 ELISA (kinase activity of the FLK-1 receptor in FLK-1/NIH3T3 cells, VEGF stimulated); format: cell-based; parameters: concentration or dose not given beside the values
T1 construct: expressed in transfected cells; host or cells: NIH3T3 C7#3
Description: An enzyme linked immunosorbent assay (ELISA) was conducted to measure the catalytic activity of the FLK-1 receptor and more specifically, the inhibition or activation of indolinone compounds on the catalytic activity of the FLK-1 receptor. Specifically, the following assay was conducted to measure catalytic activity of the FLK-1 receptor in FLK-1/NIH3T3 cells.
The materials and protocol for the FLK-1 ELISA assay are as described in International Patent Publication No. WO 96/40116, published December 19, 1996 by Tang et al.
Selected compounds were tested in the FLK-1 ELISA assay.
An ELISA assay was conducted to measure the kinase activity of the FLK-1 receptor and more specifically, the inhibition or activation of protein tyrosine kinase activity on the FLK-1 receptor. Specifically, the following assay was conducted to measure kinase activity of the FLK-1 receptor in FLK-1/NIH3T3 cells.
Materials. The following reagents and supplies were used: • a. […] Cappel goat anti-rabbit IgG (catalog no. 55641); • c. PBS (Gibco Catalog No. 450-1300EB); • d. TBSW Buffer (50 mM Tris (pH 7.2), 150 mM NaCl and 0.1% Tween-20); • e. Ethanolamine stock (10% ethanolamine (pH 7.0), stored at 4°C); • f. HNTG buffer (20mM HEPES buffer (pH 7.5), 150mM NaCl, 0.2% Triton X-100, and 10% glycerol); • g. EDTA (0.5 M (pH 7.0) as a 100X stock); • h. Sodium ortho vanadate (0.5 M as a 100X stock); • i. Sodium pyro phosphate (0.2M as a 100X stock); • j. NUNC 96 well V bottom polypropylene plates (Applied Scientific Catalog No. AS-72092); • k. NIH3T3 C7#3 Cells (FLK-1 expressing cells); • l. DMEM with 1X high glucose L Glutamine (catalog No. 11965-050); • m. FBS, Gibco (catalog no. 16000-028); • n. L-glutamine, Gibco (catalog no. 25030-016); • o. VEGF, PeproTech, Inc. (catalog no. 100-20)(kept as 1 µg/100 µl stock in Milli-Q dH2O and stored at -20°C; • p. Affinity purified anti-FLK-1 antiserum which can be obtained or purified as follows: • 1. Prepare a Tresyl-Activated Agarose/Flk-1-D column by incubating 10 ml of Tresyl-Activated Agarose with 20 mg of purified GST-Flk-1-D fusion protein in 100mM sodium bicarbonate (pH 9.6) buffer overnight at 4 °C. • 2. Wash the column once with PBS. • 3. Block the excess sites on the column with 2 M glycine for 2 hours at 4°C. • 4. Wash the column with PBS. • 5. Incubate the column with Rabbit anti-Flk-1D production bleed for 2 hours at 4 °C. • 6. Wash the column with PBS. • 7. Elute antiserum with 100 mM Citric Acid, pH3.0 and neutralize the eluate immediately with 2 M Tris, pH 9.0. • 8. Dialyize the eluate against PBS overnight at 4 °C with 3 changes of buffer (sample to buffer ratio is 1:100). • 9. Adjust the dialyized antiserum to 5% glycerol and store at -80 °C in small aliquotes. • q.
Protocol. The following protocol was used for conducting the assay: • 1. Coat Corning 96-well elisa plates with 1.0µg per well Cappel Anti-rabbit IgG antibody in 0.1M Na2CO3 pH 9.6. Bring final volume to 150 µl per well. Coat plates overnight at 4°C. Plates can be kept up to two weeks when stored at 4°C. • 2. Grow cells in Growth media(DMEM, supplemental with 2.0mM L-Glutamine, 10% FBS) in suitable culture dishes until confluent at 37°C, 5% CO2. • 3. Harvest cells by trypsinization and seed in Corning 25850 polystyrene 96-well roundbottom cell plates, 25.000 cells/well in 200µl of growth media. • 4. Grow cells at least one day at 37°C, 5% CO2. • 5. Wash cells with D-PBS 1X. • 6. Add 200µl/well of starvation media (DMEM, 2.0mM 1-Glutamine, 0.1% FBS). Incubate overnight at 37°C, 5% CO2. • 7. Dilute Compounds/Extracts 1:20 in polypropylene 96 well plates using starvation media. Dilute dimethylsulfoxide 1:20 for use in control wells. • 8. Remove starvation media from 96 well cell culture plates and add 162 µl of fresh starvation media to each well. • 9. Add 18µl of 1:20 diluted Compound/Extract dilution (from step 7) to each well plus the 1:20 dimethylsulfoxide dilution to the control wells (+/- VEGF), for a final dilution of 1:200 after cell stimulation. […]

PDGF-R = PDGF-R (Homo sapiens, UniProt P09619); assay: PDGF-R ELISA; format: cell-based
Sequence of PDGF-R (P09619 33-1106, species assumed): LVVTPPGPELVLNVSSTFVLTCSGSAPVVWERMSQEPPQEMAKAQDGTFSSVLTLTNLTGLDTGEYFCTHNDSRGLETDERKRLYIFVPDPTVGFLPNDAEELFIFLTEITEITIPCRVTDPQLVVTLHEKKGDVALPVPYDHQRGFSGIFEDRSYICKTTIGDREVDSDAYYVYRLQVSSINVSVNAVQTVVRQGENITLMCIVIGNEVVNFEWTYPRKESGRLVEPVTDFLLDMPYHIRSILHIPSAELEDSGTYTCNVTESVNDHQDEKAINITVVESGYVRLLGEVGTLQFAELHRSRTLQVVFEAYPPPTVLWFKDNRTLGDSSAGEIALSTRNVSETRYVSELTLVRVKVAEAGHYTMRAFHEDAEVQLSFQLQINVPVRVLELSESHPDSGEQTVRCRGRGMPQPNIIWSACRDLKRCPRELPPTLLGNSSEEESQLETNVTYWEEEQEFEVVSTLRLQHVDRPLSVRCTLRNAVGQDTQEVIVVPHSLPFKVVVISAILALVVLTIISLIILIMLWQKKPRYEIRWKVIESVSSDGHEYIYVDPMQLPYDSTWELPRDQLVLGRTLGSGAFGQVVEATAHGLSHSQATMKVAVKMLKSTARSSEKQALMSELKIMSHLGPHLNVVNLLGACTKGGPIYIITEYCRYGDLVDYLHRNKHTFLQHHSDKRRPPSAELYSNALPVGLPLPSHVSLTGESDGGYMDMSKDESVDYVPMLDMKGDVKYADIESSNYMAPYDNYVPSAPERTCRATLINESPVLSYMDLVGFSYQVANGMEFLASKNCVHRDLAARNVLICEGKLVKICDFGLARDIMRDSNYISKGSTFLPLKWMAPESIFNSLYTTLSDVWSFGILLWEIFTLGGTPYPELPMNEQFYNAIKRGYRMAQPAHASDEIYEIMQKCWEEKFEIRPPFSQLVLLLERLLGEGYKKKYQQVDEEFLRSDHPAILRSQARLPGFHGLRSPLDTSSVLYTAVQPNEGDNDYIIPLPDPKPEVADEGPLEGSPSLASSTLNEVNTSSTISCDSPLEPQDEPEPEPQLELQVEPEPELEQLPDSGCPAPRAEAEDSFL
From the text: A PDGF-R ELISA is described in International Patent Publication No. WO 96/40116, published December 19, 1996 by Tang et al.

T1 sequence (P35918 20-1345): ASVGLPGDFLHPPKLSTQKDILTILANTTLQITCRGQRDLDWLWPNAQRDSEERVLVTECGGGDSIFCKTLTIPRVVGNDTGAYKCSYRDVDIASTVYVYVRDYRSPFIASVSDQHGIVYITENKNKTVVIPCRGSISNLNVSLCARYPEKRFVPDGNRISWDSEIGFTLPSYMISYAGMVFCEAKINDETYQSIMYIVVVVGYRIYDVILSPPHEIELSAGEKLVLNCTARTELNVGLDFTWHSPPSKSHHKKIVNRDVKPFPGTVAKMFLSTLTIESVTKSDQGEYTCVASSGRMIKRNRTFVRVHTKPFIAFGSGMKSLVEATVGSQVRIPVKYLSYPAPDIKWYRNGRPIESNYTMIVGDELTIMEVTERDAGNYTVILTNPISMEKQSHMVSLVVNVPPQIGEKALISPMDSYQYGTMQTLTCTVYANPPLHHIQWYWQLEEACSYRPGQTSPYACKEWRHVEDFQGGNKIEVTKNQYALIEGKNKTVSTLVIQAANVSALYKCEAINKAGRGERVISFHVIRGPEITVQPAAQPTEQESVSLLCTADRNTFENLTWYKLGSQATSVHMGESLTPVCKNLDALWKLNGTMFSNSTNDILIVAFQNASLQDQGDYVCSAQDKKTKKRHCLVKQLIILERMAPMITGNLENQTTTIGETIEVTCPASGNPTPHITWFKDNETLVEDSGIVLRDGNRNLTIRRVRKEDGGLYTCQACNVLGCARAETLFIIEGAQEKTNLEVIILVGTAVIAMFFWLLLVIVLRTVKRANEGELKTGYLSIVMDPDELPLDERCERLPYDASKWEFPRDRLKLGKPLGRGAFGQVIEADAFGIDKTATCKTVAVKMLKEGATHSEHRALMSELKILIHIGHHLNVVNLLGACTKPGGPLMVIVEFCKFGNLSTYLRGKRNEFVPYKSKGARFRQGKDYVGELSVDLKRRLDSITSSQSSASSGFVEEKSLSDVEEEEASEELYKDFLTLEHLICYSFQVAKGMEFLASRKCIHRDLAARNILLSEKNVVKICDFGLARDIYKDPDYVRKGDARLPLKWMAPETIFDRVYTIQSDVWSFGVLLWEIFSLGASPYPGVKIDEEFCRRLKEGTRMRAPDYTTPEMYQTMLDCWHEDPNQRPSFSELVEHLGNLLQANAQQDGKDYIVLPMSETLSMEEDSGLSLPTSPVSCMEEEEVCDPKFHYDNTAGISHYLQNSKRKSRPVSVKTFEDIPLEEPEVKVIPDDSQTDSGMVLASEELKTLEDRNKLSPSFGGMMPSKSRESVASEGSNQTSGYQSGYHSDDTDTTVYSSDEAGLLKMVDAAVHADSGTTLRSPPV

CN1C(=O)C(=C2C(=O)Nc3ccc(S(=O)(=O)Nc4ccc(C(F)(F)F)cc4)cc32)c2ccccc21 [10731/E10]
Fik Kinase %Inhibition (FLK-1 receptor): 33.1% | PDGF Kinase %Inhibition (PDGF-R): 21.7%

O=C1Nc2ccc(S(=O)(=O)Nc3ccc(C(F)(F)F)cc3)cc2C1=Cc1coc2ccc([N+](=O)[O-])cc2c1=O [10731/E07]
Fik Kinase %Inhibition (FLK-1 receptor): 12.6% | PDGF Kinase %Inhibition (PDGF-R): 3.7%

CNS(=O)(=O)c1ccc2c(c1)C(=Cc1cc(Cl)c(OC)c(C(C)(C)C)c1)C(=O)N2 [10732/D09]
Fik Kinase %Inhibition (FLK-1 receptor): 15.2% | PDGF Kinase %Inhibition (PDGF-R): 15.9%

Cc1cc2occ(C=C3C(=O)Nc4ccc(CCCl)cc43)c(=O)c2cc1C [10731/G03]
Fik Kinase %Inhibition (FLK-1 receptor): 12.9% | PDGF Kinase %Inhibition (PDGF-R): 6.5%

CCOC(=O)CCc1c(C(=O)OCC)[nH]c(C=C2C(=O)Nc3ccc(S(=O)(=O)NC)cc32)c1CC(=O)OCC [10718/D05]
Fik Kinase %Inhibition (FLK-1 receptor): 11.5%

CNS(=O)(=O)c1ccc2c(c1)C(=Cc1c[nH]c3ccc(OC)cc13)C(=O)N2 [10731/D09]
Fik Kinase %Inhibition (FLK-1 receptor): 6.1% | PDGF Kinase %Inhibition (PDGF-R): -2.0%

CN1C(=O)C(=C2C(=O)Nc3ccc(S(=O)(=O)N4CCOCC4)cc32)c2ccccc21 [10731/F10]
Fik Kinase %Inhibition (FLK-1 receptor): 11.0% | PDGF Kinase %Inhibition (PDGF-R): 28.4%

COc1ccc2[nH]cc(C=C3C(=O)Nc4ccc(S(=O)(=O)Nc5ccc(C(F)(F)F)cc5)cc43)c2c1 [10731/E09]
Fik Kinase %Inhibition (FLK-1 receptor): 52.5% | PDGF Kinase %Inhibition (PDGF-R): 23.2%

CNS(=O)(=O)c1ccc2c(c1)C(=Cc1cc(OC)cc(Br)c1O)C(=O)N2 [10718/D03]
Fik Kinase %Inhibition (FLK-1 receptor): 1.1%

Cc1c(Br)ccc2c1C(=Cc1ccc([N+](=O)[O-])o1)C(=O)N2 [10718/C11]
Fik Kinase %Inhibition (FLK-1 receptor): 11.4%

CCOC(=O)c1c(C)[nH]c(C=C2C(=O)Nc3ccc(S(=O)(=O)NC)cc32)c1C [10718/D02]
Fik Kinase %Inhibition (FLK-1 receptor): 13.3%

CNS(=O)(=O)c1ccc2c(c1)C(=Cc1ccc3ccccc3c1O)C(=O)N2 [10718/D04]
Fik Kinase %Inhibition (FLK-1 receptor): 6.4%

CC(C)c1ccc2occ(C=C3C(=O)Nc4ccc(CCCl)cc43)c(=O)c2c1 [10731/G05]
Fik Kinase %Inhibition (FLK-1 receptor): 17.5% | PDGF Kinase %Inhibition (PDGF-R): 8.0%

CNS(=O)(=O)c1ccc2c(c1)C(=Cc1cc(C(C)C)c(Oc3ccccc3)c(C(C)C)c1)C(=O)N2 [10732/D04]
Fik Kinase %Inhibition (FLK-1 receptor): 24.6% | PDGF Kinase %Inhibition (PDGF-R): 50.7%

CC(C)(C)c1cc(C=C2C(=O)Nc3ccc(I)cc32)ccc1OCc1ccccc1 [10732/B06]
Fik Kinase %Inhibition (FLK-1 receptor): 8.1% | PDGF Kinase %Inhibition (PDGF-R): -12.4%

O=C1Nc2ccc(S(=O)(=O)N3CCOCC3)cc2C1=Cc1coc2ccc([N+](=O)[O-])cc2c1=O [10731/F07]
Fik Kinase %Inhibition (FLK-1 receptor): 13.3% | PDGF Kinase %Inhibition (PDGF-R): 1.3%

Cc1c(Br)ccc2c1C(=Cc1cc(C(C)C)c(Oc3ccccc3)c(C(C)C)c1)C(=O)N2 [10732/C04]
Fik Kinase %Inhibition (FLK-1 receptor): 12.8% | PDGF Kinase %Inhibition (PDGF-R): 3.8%

COc1ccc2[nH]cc(C=C3C(=O)Nc4ccc(S(=O)(=O)N5CCOCC5)cc43)c2c1 [10731/F09]
Fik Kinase %Inhibition (FLK-1 receptor): 2.3% | PDGF Kinase %Inhibition (PDGF-R): 15.6%

CNS(=O)(=O)c1ccc2c(c1)C(=C1C(=O)N(C)c3ccccc31)C(=O)N2 [10731/D10]
Fik Kinase %Inhibition (FLK-1 receptor): 13.0% | PDGF Kinase %Inhibition (PDGF-R): 9.9%

COc1c(Cl)cc(C=C2C(=O)Nc3c(Br)cc(Br)cc32)cc1C(C)(C)C [10732/A09]
Fik Kinase %Inhibition (FLK-1 receptor): -11.2% | PDGF Kinase %Inhibition (PDGF-R): 8.8%

C=C(C)C1CC=C(C=C2C(=O)Nc3ccc(S(=O)(=O)Nc4ccc(C(F)(F)F)cc4)cc32)CC1 (centres unmarked) [10731/E04]
Fik Kinase %Inhibition (FLK-1 receptor): 23.8% | PDGF Kinase %Inhibition (PDGF-R): 30.8%

CC(C)c1cc(C=C2C(=O)Nc3ccc(I)cc32)cc(C(C)C)c1Oc1ccccc1 [10732/B04]
Fik Kinase %Inhibition (FLK-1 receptor): -1.3% | PDGF Kinase %Inhibition (PDGF-R): 16.9%

COc1c(C(C)C)cc(C=C2C(=O)Nc3ccc(I)cc32)cc1C(C)C [10732/B03]
Fik Kinase %Inhibition (FLK-1 receptor): 8.2% | PDGF Kinase %Inhibition (PDGF-R): 17.4%

CC(C)c1ccc2occ(C=C3C(=O)Nc4ccc(S(=O)(=O)N5CCOCC5)cc43)c(=O)c2c1 [10731/F05]
Fik Kinase %Inhibition (FLK-1 receptor): 17.6% | PDGF Kinase %Inhibition (PDGF-R): 20.3%

CNS(=O)(=O)c1ccc2c(c1)C(=Cc1ccc(OCc3ccccc3)c(C(C)(C)C)c1)C(=O)N2 [10732/D06]
Fik Kinase %Inhibition (FLK-1 receptor): 16.3% | PDGF Kinase %Inhibition (PDGF-R): 16.4%

O=C1Nc2c(Br)cc(Br)cc2C1=CC(c1cccs1)C(F)(F)F (centres unmarked) [10732/A02]
Fik Kinase %Inhibition (FLK-1 receptor): -12.5% | PDGF Kinase %Inhibition (PDGF-R): 10.8%

CN1C(=O)C(=C2C(=O)Nc3ccc(CCCl)cc32)c2ccccc21 [10731/G10]
Fik Kinase %Inhibition (FLK-1 receptor): -9.0% | PDGF Kinase %Inhibition (PDGF-R): 5.6%

CC(C)(C)c1cc(C=C2C(=O)Nc3c(Br)cc(Br)cc32)cc(Br)c1OCc1ccccc1 [10732/A08]
Fik Kinase %Inhibition (FLK-1 receptor): -10.0% | PDGF Kinase %Inhibition (PDGF-R): 31.0%

CCn1c2ccccc2c2cc(C=C3C(=O)Nc4ccc(S(=O)(=O)N5CCOCC5)cc43)ccc21 [10731/F02]
Fik Kinase %Inhibition (FLK-1 receptor): 11.1% | PDGF Kinase %Inhibition (PDGF-R): 14.1%

CCn1c2ccccc2c2cc(C=C3C(=O)Nc4ccc(CCCl)cc43)ccc21 [10731/G02]
Fik Kinase %Inhibition (FLK-1 receptor): 16.8% | PDGF Kinase %Inhibition (PDGF-R): -10.1%

CC(C)(C)c1cc(C=C2C(=O)Nc3ccc(I)cc32)cc(Br)c1OCc1ccccc1 [10732/B08]
Fik Kinase %Inhibition (FLK-1 receptor): 8.0% | PDGF Kinase %Inhibition (PDGF-R): 16.9%

CC(C)c1cc(C=C2C(=O)Nc3c(Br)cc(Br)cc32)cc(C(C)C)c1Oc1ccccc1 [10732/A04]
Fik Kinase %Inhibition (FLK-1 receptor): -14.1% | PDGF Kinase %Inhibition (PDGF-R): -9.4%

COc1ccc(C=C2C(=O)Nc3c(Br)cc(Br)cc32)cc1C(C)(C)C [10732/A05]
Fik Kinase %Inhibition (FLK-1 receptor): -3.9% | PDGF Kinase %Inhibition (PDGF-R): -12.9%

COc1c(Br)cc(C=C2C(=O)Nc3ccc(I)cc32)cc1C(C)(C)C [10732/B07]
Fik Kinase %Inhibition (FLK-1 receptor): 1.6% | PDGF Kinase %Inhibition (PDGF-R): 21.4%

Cc1c(Br)ccc2c1C(=Cc1ccco1)C(=O)N2 [10718/C10]
Fik Kinase %Inhibition (FLK-1 receptor): -11.9%

CCOC(=O)c1cc(C=C2C(=O)Nc3ccc(S(=O)(=O)NC)cc32)oc1C [10718/D06]
Fik Kinase %Inhibition (FLK-1 receptor): 15.8%
